In paper PMC4703110 (Journal of chemical information and modeling, 2015):

Target: human μ-opioid receptor (Homo sapiens, UniProt P35372)
Format: cell-based
Details: read-out: EC50, μM (PAM mode)

Chain of human μ-opioid receptor (P35372 whole entry): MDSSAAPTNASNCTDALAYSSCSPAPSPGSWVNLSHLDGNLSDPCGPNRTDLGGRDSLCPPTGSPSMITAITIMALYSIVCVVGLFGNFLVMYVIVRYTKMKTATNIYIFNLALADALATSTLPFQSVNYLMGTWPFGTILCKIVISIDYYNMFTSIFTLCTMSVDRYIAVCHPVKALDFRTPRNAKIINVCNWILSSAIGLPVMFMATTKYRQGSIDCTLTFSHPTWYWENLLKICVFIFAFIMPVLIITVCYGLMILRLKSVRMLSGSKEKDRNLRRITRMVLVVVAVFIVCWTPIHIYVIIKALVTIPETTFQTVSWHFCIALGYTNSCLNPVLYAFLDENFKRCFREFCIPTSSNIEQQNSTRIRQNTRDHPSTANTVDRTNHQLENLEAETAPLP

Work on `COc1ccc(C2SCCN2S(=O)(=O)c2ccc(Cl)cc2)cc1Br` (stereo not shown) [BMS-986122] yielded an EC50 of 16.2 µM.
